Data as given in patent publication US20250304623A1, “PEPTIDES FOR INTRACELLULAR DELIVERY” (UNIVERSIDADE DE SANTIAGO DE COMPOSTELA, priority 2022, published 2025).
*: point of attachment. NHNH2 = NN*

Legend:
Type in all cases: cell-based
HCT116 cells = assay: RLuc pDNA delivery, robotic library screening, HCT116
Hela cells = assay: RLuc pDNA delivery, robotic library screening, HeLa
[1] = system: Hek293 cells expressing EGFP; assay: EGFP-targeting siRNA delivery (GFP silencing vs siMOCK), Hek293
Procedure: To generate an EGFP expressing HeLa cell line, HeLa cells were transfected with EGFP pDNA (pEGFP-C1, Clontech) and stable transfectants were selected with 400 μg/mL of G-418 (Millipore). Green clones were selected by epifluorescence microscopy and tested for EGFP expression stability through several passages. […] All other EGFP-expressing cell lines were obtained in a similar way from parent non-EGFP-expressing cell lines.
Cells expressing EGFP were seeded in a 96 well plate the day before the experiment at a concentration of 50,000 cell/mL (100 μL/w) in DMEM+10% FBS+1% Gln-Abt. For robotic library screening, the delivery of an EGFP-targeting siRNA (EGFP: enhanced green fluorescent protein, Ambion® Silencer® GFP Positive Control siRNA (siGFP) (AM4626)) in six different cell lines expressing EGFP was performed. […] The mixture was shaken for 30 min at room temperature (rt) before the addition to the cells. The cell medium was aspirated, and cells were washed twice with PBS. Finally, 50 μL of the solution of siRNA/amphiphile complexes were added to the cells and incubated for 4 h. After transfection, the medium was replaced by 100 μL of fresh DMEM supplemented with 10% FBS. The fluorescence knockdown was quantified after 72 h in a plate reader, by comparison with cells transfected with a non-targeting siRNA control (siMOCK, Silencer™ Negative Control No. 1 siRNA (siMOCK) (AM4611)). EGFP knockdown was compared with Lipofectamine® RNAiMAX silencing efficiency (30-60% depending on cell line, defined with a numeric value in the below tables). All experiments were done in triplicate.
Tables 1-7: RLuc (pDNA) or EGFP (mRNA) expression levels were normalized to Lipofectamine reagents (value=1) and expressed as fold-times signal increase. In the case of siRNA, the siRNA treated cells fluorescence was compared with siMOCK control fluorescence, while Cas9-RNP mediated knockout was measured against the fluorescence of untreated cells. In both siRNA and Cas9-RNP, values are expressed as % fluorescence reduction. Amphiphile concentration was 5 μM in all cases. All experiments were performed in triplicate.
Tables 20-25 show the mean (triplicates) percentage of GFP-silencing, accounted by fluorescence intensity decrease relative to a non-targeting siRNA (siMOCK) control, measured after the transfection of siRNA by different amphiphiles at different concentrations in a variety of cell lines. Background values, accounted by untreated control cells, were subtracted for processing.

Ac-RK*LRRK*L-NH2 (Ac-RK(NHNH2)LRRK(NHNH2)L-NH2; not fully specified; printed as Ac-RK*LRRK*L-NH2; also: K*2,K*6: native or modified lysine (ε-amide to a linker)) [Peptide 7.2]
mean luminescent intensity (RLuc pDNA) (HCT116 cells; Dodecanal, 5 μM): 911 RLU | mean luminescent intensity (RLuc pDNA) (HCT116 cells; Dodecanal, 10 μM): 729 RLU | mean luminescent intensity (RLuc pDNA) (HCT116 cells; Dodecanal, 15 μM): 684 RLU | mean luminescent intensity (RLuc pDNA) (HCT116 cells; Myristoleyl, 5 μM): −526 RLU | mean luminescent intensity (RLuc pDNA) (HCT116 cells; Myristoleyl, 10 μM): −505 RLU | mean luminescent intensity (RLuc pDNA) (HCT116 cells; Myristoleyl, 15 μM): −526 RLU | mean luminescent intensity (RLuc pDNA) (Hela cells; HeLa, Dodecanal, 5 μM): 2459 RLU | mean luminescent intensity (RLuc pDNA) (Hela cells; Hela, Myristoleyl, 5 μM): −664 RLU | mean luminescent intensity (RLuc pDNA) (Hela cells; Hela, Myristoleyl, 10 μM): −678 RLU | mean luminescent intensity (RLuc pDNA) (Hela cells; Hela, Myristoleyl, 15 μM): −687 RLU | percentage of GFP-silencing relative to siMOCK ([1]; Dodecanal, 15 μM): 7% | percentage of GFP-silencing relative to siMOCK ([1]; Myristoleyl, 5 μM): −8%
